8 compounds from patent US20030166922A1, “Novel cephalosporin compounds and process for preparing the same” (priority 2000, published 2003) can be followed below.

Assay in all cases: Minimum Inhibitory Concentration (MIC), agar dilution, standard strains
In one assay the test system is S. aureus K311. The format is cell-based, Staphylococcus aureus. To be noted: Table 2; Mueller-Hinton agar, 37° C., 20 hours. As for the experimental part:
(§1) Minimum Inhibitory Concentration (MIC)
(§2) The effectiveness of the compound according to the present invention was determined by obtaining Minimum Inhibitory Concentration (MIC) of the compounds prepared by the above Examples (I-1 to I-33) and vancomycin, which is the known compound having a potent activity against gram-positive strains, as the control drug against the standard strains. Specifically, Minimum Inhibitory Concentration was obtained by diluting the test material with a double dilution method, dispersing them in Mueller-Hinton agar medium, inoculating each of the test strain having 10^7 cfu (colny forming unit) in an amount of 2:1 to the medium and then incubating them at 37° C. for 20 hours.

In another assay the test system is S. aureus 77. The format is cell-based, Staphylococcus aureus. To be noted: for MIC: read-out: Minimum Inhibitory Concentration (MIC), S. aureus 77. As for the experimental part: as §1, §2
In another assay the test system is S. epidermidis R005. Type of assay: cell-based. To be noted: for MIC: Staphylococcus epidermidis, read-out: Minimum Inhibitory Concentration (MIC), S. epidermidis R005. As for the experimental part: as §1, §2
Assay [1] deals with Staphylococcus aureus giorgio. Type of assay: cell-based. The settings on record: for Minimum Inhibitory Concentration (MIC), S. aureus giorgio: Table 2, Mueller-Hinton agar, 37° C., 20 hours. As for the experimental part: as §1, §2
The test system of the next assay is E. faecalis EFS004. Type of assay: cell-based. To be noted: Table 2; Mueller-Hinton agar, 37° C., 20 hours. As for the experimental part: as §1, §2
Another assay deals with S. aureus 241. The format is cell-based, Staphylococcus aureus. The settings on record: Staphylococcus aureus, 241, 20 h, read-out: Minimum Inhibitory Concentration (MIC), S. aureus 241. As for the experimental part: as §1, §2
Another assay deals with E. faecalis L239. Type of assay: cell-based. To be noted: Enterococcus faecalis, L239, 20 h, read-out: Minimum Inhibitory Concentration (MIC), E. faecalis L239. How it is done:
as §1, §2

Where [2] appears, read: Table 2, Mueller-Hinton agar, 37° C., 20 hours.
Where [3] appears, read: Staphylococcus aureus, 77, Table 2, Mueller-Hinton agar, 37° C., 20 hours.
Where [4] appears, read: R005, Table 2, Mueller-Hinton agar, 37° C., 20 hours.

Values after ≈ are worked out from the molar mass of the structure shown. Like-named read-outs stand apart in the source and are kept apart here.

For the compound `Cn1c(N)n[n+]2c(SCSC3=C(C(=O)O)N4C(=O)[C@@H](NC(=O)CSc5cc(Cl)nc(Cl)c5)[C@H]4SC3)nc(N)cc12` [Example I-31, 2,7-diamino-5-[({[(6R,7R)-2-carboxy-7-({2-[(2,6-dichloro-4-pyridinyl)sulf-anyl]acetyl}amino)-8-oxo-5-thia-1-azabicyclo[4.2.0]oct-2-en-3-yl]sulfanyl}methyl)sulfan-yl]-1-methyl-1H-[1,2,4]triazolo[1,5-c]pyrimidin-4-ium], the “Minimum Inhibitory Concentration (MIC), S. aureus K311” value in the assay on S. aureus K311 is recorded as 0.5 :g/ml. The “Minimum Inhibitory Concentration (MIC), S. aureus 77” value with S. aureus 77 (setting [2]) is reported as 0.25 :g/ml. For the same compound, the “Minimum Inhibitory Concentration (MIC), S. epidermidis R005” value in the assay with S. epidermidis R005 (setting [2]) is reported as 0.25 :g/ml. Besides, the “Minimum Inhibitory Concentration (MIC), S. aureus giorgio” value in assay [1] was 0.031 :g/ml. The “Minimum Inhibitory Concentration (MIC), E. faecalis EFS004” value with E. faecalis EFS004 is 0.5 :g/ml.

With `Nc1nc(O)cc(SCSC2=C(C(=O)O)N3C(=O)[C@@H](NC(=O)CSc4cc(Cl)nc(Cl)c4)[C@H]3SC2)n1` [Example I-28, (6R,7R)-3-({[(2-amino-6-hydroxy-4-pyrimidinyl)sulfanyl]methyl}sulfanyl)-7-({2-[(2,6-dic hloro-4-pyridinyl)sulfanyl]acetyl}amino)-8-oxo-5-thia-1-azabicyclo[4.2.0]-oct-2-ene-2-car boxylic acid], the “Minimum Inhibitory Concentration (MIC), S. aureus K311” value in the assay with S. aureus K311 was 0.5 :g/ml. Also, the MIC with S. aureus 77 (setting [3]) and in the assay with S. epidermidis R005 (setting [4]) was 0.25 µg/mL (≈ 0.411 µM) each time. The “Minimum Inhibitory Concentration (MIC), S. aureus giorgio” value in assay [1] is recorded as 0.031 :g/ml. Further, in the assay on E. faecalis EFS004, the “Minimum Inhibitory Concentration (MIC), E. faecalis EFS004” value is 1 :g/ml.

In the case of `Nc1nc(SCSC2=C(C(=O)O)N3C(=O)[C@@H](NC(=O)CSc4cc(Cl)nc(Cl)c4)[C@H]3SC2)nc2[nH]ncc12` [Example I-26, (6R,7R)-3-({[(4-amino-1H-pyrazolo[3 ,4-d]pyrimidin-6-yl)sulfanyl]methy-1}sulfanyl)-7-({2-[(2,6-dichloro-4-pyridinyl)sulfanyl]acetyl}amino)-8-oxo-5-thia-1-azabi-cyclo[4.2.0]oct-2-ene-2-carboxylic acid], the “Minimum Inhibitory Concentration (MIC), S. aureus K311” value in the assay on S. aureus K311 was 0.5 :g/ml. Besides, in the assay on S. aureus 77 (setting [2]), the “Minimum Inhibitory Concentration (MIC), S. aureus 77” value was 0.25 :g/ml. The “Minimum Inhibitory Concentration (MIC), S. epidermidis R005” value in the assay with S. epidermidis R005 (setting [2]) is 0.25 :g/ml. Further, the “Minimum Inhibitory Concentration (MIC), S. aureus giorgio” value in assay [1] is 0.016 :g/ml. Further, the “Minimum Inhibitory Concentration (MIC), E. faecalis EFS004” value in the assay on E. faecalis EFS004 was 0.5 :g/ml.

For `CN[C@H](CC(C)C)C(=O)N[C@H]1C(=O)N[C@@H](CC(N)=O)C(=O)N[C@H]2C(=O)N[C@H]3C(=O)N[C@H](C(=O)N[C@H](C(=O)O)c4cc(O)cc(O)c4-c4cc3ccc4O)[C@H](O)c3ccc(c(Cl)c3)Oc3cc2cc(c3O[C@@H]2O[C@H](CO)[C@@H](O)[C@H](O)[C@H]2O[C@H]2C[C@](C)(N)[C@H](O)[C@H](C)O2)Oc2ccc(cc2Cl)[C@H]1O` [Vancomycin, vancomycin, reference compound], the MIC in the assay with S. aureus 241 came to 2 µg/mL (≈ 1.38 µM); in the assay with S. aureus 77 (Staphylococcus aureus, 77, 20 h), 1 µg/mL (≈ 0.69 µM); in the assay with E. faecalis L239 it was 2 µg/mL (≈ 1.38 µM); in the assay on S. epidermidis R005 (R005, 20 h), 1 µg/mL (≈ 0.69 µM); in assay [1] (Staphylococcus aureus, 20 h, read-out: Minimum Inhibitory Concentration (MIC), Staphylococcus aureus giorgio), 1 µg/mL (≈ 0.69 µM). In addition, in the assay with S. aureus K311, the “Minimum Inhibitory Concentration (MIC), S. aureus K311” value was 2 :g/ml. In the assay with S. aureus 77 (setting [2]), the “Minimum Inhibitory Concentration (MIC), S. aureus 77” value is 1 :g/ml. Moreover, in the assay on S. epidermidis R005 (setting [2]), the “Minimum Inhibitory Concentration (MIC), S. epidermidis R005” value is reported as 1 :g/ml. Further, the “Minimum Inhibitory Concentration (MIC), S. aureus giorgio” value in assay [1] was 1 :g/ml. For the same compound, the “Minimum Inhibitory Concentration (MIC), E. faecalis EFS004” value in the assay with E. faecalis EFS004 is listed as 2 :g/ml.

On to `O=C(CSc1cc(Cl)nc(Cl)c1)N[C@@H]1C(=O)N2C(C(=O)O)=C(SCSc3ncnc4[nH]ncc34)CS[C@H]12` [Example I-27, (6R,7R)-7-({2-[(2,6-dichloro-4-pyridinyl)sulfanyl]acetyl}amino)-8-oxo-3-{[(1H-pyrazolo[3,4-d]pyrimidin-4-yl-sulfanyl)methyl]sulfanyl}-5-thia-1-azabicyclo[4.2. 0]oct-2-ene-2-carboxylic acid], for which the “Minimum Inhibitory Concentration (MIC), S. aureus K311” value in the assay on S. aureus K311 is recorded as 0.5 :g/ml. The MIC in the assay on S. aureus 77 (setting [3]) and in the assay with S. epidermidis R005 (setting [4]) was 0.25 µg/mL (≈ 0.405 µM) in each case. For the same compound, in assay [1], the “Minimum Inhibitory Concentration (MIC), S. aureus giorgio” value was 0.13 :g/ml. In the assay with E. faecalis EFS004, the “Minimum Inhibitory Concentration (MIC), E. faecalis EFS004” value is 0.5 :g/ml.

As for `Nc1cc(N)nc(SCSC2=C(C(=O)O)N3C(=O)[C@@H](NC(=O)CSc4cc(Cl)nc(Cl)c4)[C@H]3SC2)n1` [Example I-25, (6R,7R)-3-({[(4,6-diamino-2-pyrimidinyl)sulfanyl]methyl}sulfanyl)-7-({2-[(2,6-dichloro-4-pyridinyl)sulfanyl]acetyl}amino)-8-oxo-5-thia-1-azabicyclo[4.2.0]oct-2-ene-2-carboxylic acid], in the assay on S. aureus K311, the “Minimum Inhibitory Concentration (MIC), S. aureus K311” value is recorded as 0.5 :g/ml. Also, the MIC with S. aureus 77 (setting [3]) and in the assay with S. epidermidis R005 (setting [4]) was 0.25 µg/mL (≈ 0.412 µM) each time. Moreover, in assay [1], the “Minimum Inhibitory Concentration (MIC), S. aureus giorgio” value is recorded as 0.016 :g/ml. In addition, in the assay with E. faecalis EFS004, the “Minimum Inhibitory Concentration (MIC), E. faecalis EFS004” value was 0.5 :g/ml.

In the case of `CCSc1nc(C)cc(SCSC2=C(C(=O)O)N3C(=O)[C@@H](NC(=O)CSc4cc(Cl)nc(Cl)c4)[C@H]3SC2)n1` [Example I-29, (6R,7R)-7-({2-[(2,6-dichloro-4-pyridinyl)sulfanyl]acetyl}amino)-3-[({[2-(ethylsulfanyl)-6-methyl-4-pyrimidinyl]sulfanyl)methyl]sulfanyl}-8-oxo-5-thia-1-azabicy-clo[4.2.0]oct-2-ene-2-carboxylic acid], in the assay on S. aureus K311, the “Minimum Inhibitory Concentration (MIC), S. aureus K311” value is given as 2 :g/ml. In addition, the “Minimum Inhibitory Concentration (MIC), S. aureus 77” value in the assay on S. aureus 77 (setting [2]) was 0.5 :g/ml. For the same compound, the “Minimum Inhibitory Concentration (MIC), S. epidermidis R005” value in the assay with S. epidermidis R005 (setting [2]) was 1 :g/ml. In addition, the “Minimum Inhibitory Concentration (MIC), S. aureus giorgio” value in assay [1] was 0.031 :g/ml. In addition, the “Minimum Inhibitory Concentration (MIC), E. faecalis EFS004” value with E. faecalis EFS004 is recorded as 0.25 :g/ml.

For the compound `O=C(CSc1cc(Cl)nc(Cl)c1)N[C@@H]1C(=O)N2C(C(=O)O)=C(SCSc3nc(O)cc(NCCO)n3)CS[C@H]12` [Example I-32, (6R,7R)-7-({2-[(2,6-dichloro-4-pyridinyl)sulfanyl]acetyl}amino)-3-{[({4-hy-droxy-6-[(2-hydroxyethyl)amino]-2-pyrimidinyl}sulfanyl)methyl]sulfanyl}-8-oxo-5-thia-1-azabicyclo[4. 2.0]oct-2-ene-2-carboxylic acid], the “Minimum Inhibitory Concentration (MIC), S. aureus K311” value in the assay on S. aureus K311 is listed as 1 :g/ml. In addition, the “Minimum Inhibitory Concentration (MIC), S. aureus 77” value with S. aureus 77 (setting [2]) is reported as 0.1 :g/ml. Moreover, the “Minimum Inhibitory Concentration (MIC), S. epidermidis R005” value in the assay on S. epidermidis R005 (setting [2]) was 1 :g/ml. The “Minimum Inhibitory Concentration (MIC), S. aureus giorgio” value in assay [1] was 0.13 :g/ml. The “Minimum Inhibitory Concentration (MIC), E. faecalis EFS004” value with E. faecalis EFS004 is 1 :g/ml.
